Where no end group is shown, it is not given here.
What was measured:
[1] = tested on: HaCaT cells; test: MTT cytotoxicity assay on HaCaT keratinocytes; type: cell-based, human
Description: To evaluate their safety profile, cytotoxicity assays were performed on HaCaT keratinocytes. Cells were exposed for 20 h to peptides at doses ranging from 0.39 to 100 μM.
Figure 1 Dose–response curves for the AMPs against HaCaT cell line and CC50 (reported in μM), HillSlope, and R^2 values were obtained by the fitting of the curves. The viability effect of Hylin-a1, AR-23, and RV-23 was analyzed on HaCaT cells. The cell monolayer was treated with serial dilutions of peptides for 20 h. Untreated cells were used as a positive control, while dimethyl sulfoxide (DMSO) was used as a negative control. HillSlope: The measure of the steepness of the dose–response curve. […] R^2 (coefficient of determination) indicates how well the model fits the data. Ranges from 0 to 1, with 1 representing a perfect fit.
The cytotoxic effect of peptides was examined using 3-(4,5 dimethylthiazol-2-yl)-2,5-diphenyltetrazolium bromide (MTT), as previously described. Cell viability, expressed as a percentage, was calculated in relation to the viability of untreated cells (+). DMSO was used as negative control (−). The human keratinocyte cell line HaCaT (Cell Lines Service, CLS-, Eppelheim, Germany) was used as a cellular model to evaluate the peptides’ cytotoxicity. HaCaT cells were grown in Dulbecco’s Modified Eagle Medium (DMEM) with 4.5 g/L of glucose (Microtech, Naples, Italy) supplemented with an antibiotic solution 100× (Himedia, Naples, Italy) and 10% Fetal Bovine Serum (FBS, Microtech).

[2] = tested on: E. coli ATCC 25992; conditions: microdilution (NCCLS), MH broth, 5 × 10^5 CFU/mL, 37 °C, 20 h, absorbance; 50 to 1.56 μM
Description: (§1) The three peptides were tested for their antibacterial activity. […] As described in the Materials and Methods section, the antibacterial effect of peptides was investigated using a microdilution assay. Each concentration of AMPs was inoculated with bacteria in 96-well plates and incubated at 37 °C for 20 h. After that, MIC values were determined by analyzing absorbance and expressed as a percentage of inhibition. MBC was assessed by observing the colonies’ growth on agar plates, as described elsewhere.
(§2) Each strain was grown in Mueller Hinton Broth (MH Broth), and 5 × 10^5 CFU/mL was used to evaluate antibacterial activity. Clinical carbapenem-resistant K. pneumoniae and E. coli isolates were collected at the AOU of Virology and Microbiology of the University of Campania “Luigi Vanvitelli”.
(§3) The antimicrobial activity of Hylin-a1, AR-23, and RV-23 was investigated using a microdilution assay as reported by the National Committee on Clinical Laboratory Standards (NCCLS) guidelines against a broad spectrum of Gram-negative bacteria. […] In 96-well, the standardized bacterial inoculum (5 × 10^5 colony forming units, CFU/mL) was inoculated together with AMPs and incubated at 37 °C for 20 h. After the time of incubation, optical density (OD) was measured at TECAN, and data were expressed as a percentage of inhibition. In addition to assessing the MIC values, the bactericidal effect was also studied as reported elsewhere.

[3] = tested on: K. pneumoniae ATCC 10031
Description: as §1, §2, §3

[4] = tested on: E. coli 1376; conditions: carbapenemase NDM (class B), rectal swab, N/D = no antibacterial activity detected
Description: as §2, §3

[5] = tested on: E. coli 1441; conditions: carbapenemase KPC (class A), rectal swab; microdilution, 37 °C, 20 h; N/D = no antibacterial activity detected
Description: as §2, §3

[6] = tested on: E. coli 2267; conditions: carbapenemase NDM (class B), rectal swab; microdilution, 37 °C, 20 h; N/D = no antibacterial activity detected
Description: as §2, §3

[7] = tested on: E. coli 3140; conditions: carbapenemase OXA-48 (class D), urine; microdilution, 37 °C, 20 h; N/D = no antibacterial activity detected
Description: as §2, §3

[8] = tested on: E. coli 716; conditions: carbapenemases IMP1, VIM, NDM (class B), urine, N/D = no antibacterial activity detected
Description: as §2, §3

[9] = tested on: K. pneumoniae 1711; conditions: carbapenemase KPC (class A), rectal swab; microdilution, 37 °C, 20 h; N/D = no antibacterial activity detected
Description: as §2, §3

[10] = tested on: K. pneumoniae 1745; conditions: carbapenemase KPC (class A), ulcer; microdilution, 37 °C, 20 h; N/D = no antibacterial activity detected
Description: as §2, §3

[11] = tested on: K. pneumoniae 1746; conditions: carbapenemase VIM (class B), rectal swab; microdilution, 37 °C, 20 h; N/D = no antibacterial activity detected
Description: as §2, §3

[12] = Serum stability assay; type: in vitro ADME, bovine; conditions: 10% FBS
Description: The susceptibility of Hylin-a1, AR-23, and RV-23 to proteolytic degradation in serum was evaluated, following the protocol reported in Section 4.3.
Figure 6 AMP stability in serum. Stability profiles of Hylin-a1 (red line), AR-23 (gray line), and RV-23 (black line) are reported. All stability tests were performed at least in triplicate. LC-MS analyses were performed using an Agilent 1260 Infinity II LC/MSD system (Milan, Italy). The percentages of intact peptides after different time points of incubation in serum were determined by integrating RP-HPLC peaks from the chromatograms recorded at a wavelength of 210 nm. The test was performed in triplicate, and the data are presented as mean values, with error bars representing standard deviations.
Peptides were mixed with 10% FBS at a final concentration of 0.2 mg/mL and incubated in a water bath at 37 °C. […] Then, the mixture was diluted with 0.1% TFA in H2O (1:1). Samples were characterized using LC-MS on a C18 Aeris Peptide column (100 × 2.1 mm), applying a linear gradient from 5 to 80% solvent B (0.1% TFA in CH3CN) over solvent A (0.1% TFA in water) in 15 min at a flow rate of 0.2 mL/min. All stability tests were performed at least in triplicate. LC-MS analyses were performed using an Agilent 1260 Infinity II LC/MSD system (Milan, Italy).

AIGSILGALAKGLPTLISWIKNR-NH2 [AR-23]
50% cytotoxic concentration (CC50) ([1]; HaCaT keratinocytes, 20 h exposure, 0.39 to 100 μM): 50 µM | CC50 obtained by the fitting of the curves ([1]; HaCaT, 20 h, Figure 1): 52.25 µM | MIC [2]: 25 µM | MBC ([3]; colonies' growth on agar plates after microdilution, N/D = not detected antibacterial activity): 25 µM | MIC ([3]; microdilution (NCCLS), MH broth, 5 × 10^5 CFU/mL, 37 °C, 20 h, absorbance, 50 to 1.56 μM): 6.25 µM | MBC [4]: 50 µM | MIC ([4]; microdilution, 37 °C, 20 h): 25 µM | MIC [5]: 25 µM | MIC [6]: 25 µM | MIC [7]: 50 µM | MBC [8]: 50 µM | MIC ([8]; microdilution, 37 °C, 20 h): 25 µM | MIC [9]: 50 µM | MIC [10]: 50 µM | MIC [11]: 25 µM | percentage of intact fragments, almost constant up to 24 h ([12]; 0.2 mg/mL, 37 °C, RP-HPLC peaks at 210 nm, mean of triplicate, after the first 2 h up to 24 h): around 30% | half-life ([12]; serum, peptide 0.2 mg/mL, 37 °C water bath, ethanol precipitation, LC-MS, RP-HPLC peak integration at 210 nm, at least triplicate): < 2 h

Source: publication PMC12024264, “Frog Skin Peptides Hylin-a1, AR-23, and RV-23: Promising Tools Against Carbapenem-Resistant Escherichia coli and Klebsiella pneumoniae Infections” (Antibiotics, 2025)
